Source: patent US6710075B2, “Therapeutic compounds and methods” (The Government of the State of Sarawak, Malaysia, priority 2000, dated 2004)
Like-named read-outs stand apart in the source and are kept apart here.

Key:
[1] = test system: THP-1 cells; experiment: Acute general protein biosynthesis inhibition, [14C] leucine incorporation, THP-1 cells; type: cell-based, human; conditions: 1 hour pretreatment + 2 hours label, read-out: IC50 Protein synthesis
[2] = test system: panel of cell lines derived from a variety of human tumour types; experiment: Cytostatic activity against a panel of human tumour cell lines (summary); type: cell-based; conditions: 72 h, range over the cell line panel, 3 days, read-out: GI50 values in nearly all cell lines tested
Method: (b) Compound A was assessed for cytotoxic and cytostatic activity against a panel of cell lines derived from a variety of human tumour types in addition to THP-1 and A549 cells (Table 5). These included K562 leukemic cells (Lozzio and Lozzio, 1975, Blood 45:321-34), PC3 prostate tumour cells (Kaighn et al., 1979, Invest. Urol. 17:16-23) and SF268 glioblastoma cells (Westphal et al, 1985, Biochem. Biophys. Res. Commun., 132:284-9). […] However, the cytotoxic potency of Compound A increased dramatically after 6 days of culture for the K562, A549 and SF268 cells.

[3] = test system: ACHN; experiment: NCI in vitro anticancer drug discovery screen (sulforhodamine B); type: cell-based; conditions: Homo sapiens, renal, 48 hr
Method: (§1) (c) Testing of Compound A against a much larger cell line panel in the NCI in vitro anticancer screen (Table 7) confirmed the results described above. […] Consistent with the data in Table 5 the cytotoxic effects measured after 2 days of culture were more varied with LC50 values ranging from 10 nM for COLO-205 colon tumour cells to ˜90 μM for 786-0 renal tumour cells.

[4] = test system: EKVX; experiment: as above; type: cell-based; conditions: Homo sapiens, lung, 48 hr
Method: as §1

[5] = test system: M14; experiment: as above; type: cell-based; conditions: Homo sapiens, M14, melanoma, 48 hr
Method: as §1

[6] = test system: MDA-N; experiment: as above; type: cell-based; conditions: Homo sapiens, breast, 48 hr
Method: as §1

[7] = test system: A549 cells; experiment: Cell death as loss of membrane integrity, YOYO-1 uptake; type: cell-based; conditions: Homo sapiens, 72 h; A549 cells, 3 days, YOYO-1 uptake; read-out: LC50 (the source's name)
Text: (§2) (a) Table 8 compares the cytostatic and cytotoxic effects of Compound A to three previously identified 1H-cyclopenta[b]benzofuran lignans that lack the dioxanyloxy group at the C6-position. The reference compounds are: Rocaglaol (Reference Compound 1) (Ohse et al., J Nat Prod, 1996, 59(7):650-52); 4′-Demethoxy-3′,4′-methylenedioxyrocaglaol (Reference Compound 2) and Methyl 4′-demethoxy-3′,4′-methylenedioxyrocaglate (Reference Compound 3) (Lee et al., Chem Biol Interact, 1998, 115(3):215-28).

[8] = test system: THP-1 cells; experiment: as above; type: cell-based; conditions: Homo sapiens, 72 h; THP-1 cells, 3 days, YOYO-1 uptake; read-out: LC50 (the source's name)
Text: as §2

[9] = test system: HL60 human promyelocytic leukemic cells; experiment: Monocytic differentiation, CD14 surface antigen expression by flow cytometry; type: cell-based; conditions: 4 days
Method: This is a morphology highly characteristic of mature macrophages and similar morphological effects were observed when the cells were treated with other known inducers of macrophage differentiation including interferon-γ (IFNγ) or phorbol 12-myristate 13-acetate (PMA). To investigate this further the effects of Compound A on HL60 human promyelocytic leukemic cells (Collins, et al, Nature, 1977, 270:347-9) were examined (Table 11). This widely used cell line is well characterised as a model of human myelomonocytic differentiation (Collins, Blood, 1987, 70(5):1233-44). In this experiment monocytic differentiation was quantitated by measuring CD14 surface antigen expression by flow cytometric analysis CD14, all LPS-binding protein, is expressed on the surface of cells of the myelomonocytic lineage and is normally expressed at very low levels in undifferentiated HL60 cells (Ferrero et al., Blood, 1983, 61(1):171-9).

[10] = test system: A549 cells; experiment: Proliferation of A549 cells, haemocytometer counting of trypan blue stained cells; type: cell-based, human; conditions: for cell death: after 9 days
Method: A549 cells were seeded at ˜10,000 cells/well and cultured in the presence of the indicted concentrations of Compound A or paclitaxel. Cells were collected and the viable cell number determined by haemocytometer counting of trypan blue stained cells at the various times. The results are the averages ±SEM of triplicate cultures.
The cytostatic effect of Compound A on the proliferation of A549 cells was confirmed by directly counting the number of cells at intervals over a nine day period (FIG. 3). When compared to untreated cells 10 nM Compound A prevented the increase in cell number by more than 95% with fewer than 10% dead cells observed at this time (measured by trypan blue exclusion). Thus, under these conditions the decreased cell number can not simply be accounted for by increased cell death. […] At the higher concentrations of 50 nM and 250 nM Compound A had cytotoxic effects and increased cell death to 86% and 100% respectively after 9 days and accounts for the decline in cell number to levels below the original staring number at this time. At the non-cytotoxic concentration of 10 nM, Compound A has a rapid and potent cytostatic effect on A549 cells.

[11] = test system: K562 leukemic cells; experiment: DNA content analysis (cell cycle) of K562 leukemic cells; type: cell-based, human; conditions: K562, 10-15 nM, 3 days
Method: K562 cells were cultured for 3 days with the indicated concentration of Compounds A or B then collected and fixed in 70% ethanol prior to staining with propidium iodide and DNA content determined by flow cytometry. The numbers indicate the % of cells in G0/G1, S and G2/M phases of the cell cycle respectively relative to all cells with ≧2N DNA content.

[12] = test system: A549 cells; experiment: Effect on cell cycle arrest and cell death induced by anti-cancer agents, DNA content analysis; type: cell-based
Method: A549 cells in 6 well plates were cultured for 3 days in the presence or absence of 10 nM Compound A together with 0.1 μM camptothecin, 10 μM vinblastin, 1 μM paclitaxel or 1 μM staurosporine as indicated. The cells were then collected and fixed in 70% ethanol prior to staining with propidium iodide and DNA content determined by flow cytometry. The numbers indicate the % of cells in the various cell cycle phases relative to all cells with ≧2N DNA content and also the % dead cells (ie. subdiploid ≦2N cells) to the left of the dotted marker that arose during the culture period.
This was examined in more detail using DNA content analysis to specifically measure cell cycle progression and cell death. In this experiment in addition to camptothecin and paclitaxel cells were also treated with vinblastin (another microtubule inhibitor) (Sorger et al., 1997, supra) and staurosporine (a kinase inhibitor) (Gescher, Crit Rev Oncol Hematol., 2000, 34(2):127-35).

[13] = read-out: LC50 (the source's name)

COC(=O)[C@H]1[C@@H](O)[C@@]2(O)c3c(OC)cc(OC4OC(C(O)CO)COC4OC)cc3O[C@@]2(c2ccc(OC)cc2)[C@@H]1c1ccccc1 (single isomer, unassigned) [Compound A]
IC50 ([1]; Homo sapiens, THP-1, THP-1 cells): ~30 nM
IC50 ([1]; THP-1 cells): 27 nM
GI50 [2]: 1 to 7 nM
GI50 [3]: < 10 nM
CC50 [3, 13]: 31600 nM
GI50 [4]: < 10 nM
CC50 [4, 13]: 23 nM
GI50 [5]: < 10 nM
CC50 [5, 13]: 51 nM
GI50 [6]: < 10 nM
CC50 [6, 13]: 543 nM
CC50 [7]: 514 nM
CC50 [8]: 15 nM
% cells expressing CD14 ([9]; HL60, 5 nM): 3.3%
% cells expressing CD14 ([9]; HL60, 10 nM): 5.7%
% cells expressing CD14 ([9]; HL60, 25 nM): 46.0%
% cells expressing CD14 ([9]; HL60, 50 nM): 43.0%
CD14 expression in viable HL60 cells ([9]; doses greater than 10 nM): significantly enhanced CD14 expression
dead cells (trypan blue exclusion) ([10]; A549, 10 nM): < 10%
prevention of the increase in cell number compared to untreated cells ([10]; A549, 10 nM, nine day period): more than 95%
cell death ([10]; A549, 50 nM): 86%
cell death ([10]; A549, 250 nM): 100%
cell cycle phase accumulation [11]: characteristic accumulation of cells in G2/M phases of the cell cycle
cell cycle distribution and cell death ([12]; A549, 10 nM Compound A alone, three days): a minor decrease in cells in G0/G1 with a slight increase in G2/M phase cells with no detectable increase in cell death
effect on cytotoxicity of staurosporine ([12]; A549, 10 nM Compound A with 1 μM staurosporine, 3 days): little effect on the cytotoxic effects of staurosporine
effect on cell cycle arrest and cytotoxicity of camptothecin, vinblastin and paclitaxel ([12]; A549, 10 nM Compound A, 3 days): prevented their characteristic cell cycle arrest and significantly inhibited their cytotoxic effects
